# Measured values reported in publication PMC8864676 (Organic & biomolecular chemistry, 2022).
# Values joined by “and” are separate entries in the source; they are usually repeats but may differ in a detail not shown here. Equal entries are not always repeated.
# Tests used:
# [1] = biological target: T1, PutA86–630 (PRODH domain of proline utilization A) (Escherichia coli, UniProt P09546); format: biochemical; conditions: for kcat: kcat of PutA86–630 from the global fit of the data set with this inhibitor; for ΔΔG, loss of binding energy relative to 1 / fold change in Ki relative to 1: chemical double mutant cycle; for fold change in Ki relative to 1: from Ki values
# [2] = biological target: T1, PutA86–630 (PRODH domain of proline utilization A); test: Initial single-point screening of compounds for inhibition of PRODH activity; format: biochemical; conditions: for inhibition at 5000 µM: read-out: inhibition in the single-point assay; for inhibition in the single-point assay (in words): 13, 15, 16 compared with 1
# [3] = biological target: PRODH; conditions: cited from earlier work
# [4] = 5 mM inhibitor, 200 mM L-proline
# T1 sequence (P09546 86-630): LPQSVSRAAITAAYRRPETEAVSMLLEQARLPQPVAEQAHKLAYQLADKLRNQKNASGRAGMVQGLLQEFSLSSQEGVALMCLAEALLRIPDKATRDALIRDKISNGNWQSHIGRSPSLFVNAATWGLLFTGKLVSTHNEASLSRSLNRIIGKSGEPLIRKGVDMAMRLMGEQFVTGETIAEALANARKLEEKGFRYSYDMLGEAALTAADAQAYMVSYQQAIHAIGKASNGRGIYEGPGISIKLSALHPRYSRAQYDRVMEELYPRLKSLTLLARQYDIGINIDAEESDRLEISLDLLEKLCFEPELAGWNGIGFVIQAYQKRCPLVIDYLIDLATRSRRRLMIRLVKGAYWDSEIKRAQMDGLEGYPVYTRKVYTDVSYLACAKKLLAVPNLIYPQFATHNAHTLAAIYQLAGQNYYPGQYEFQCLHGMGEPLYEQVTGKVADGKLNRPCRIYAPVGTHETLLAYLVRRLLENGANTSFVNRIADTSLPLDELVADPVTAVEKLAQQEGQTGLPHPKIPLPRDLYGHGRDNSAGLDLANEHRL
molecule,measurement,setting,value
"O=C(O)C1CCC1 [Compound 3, cyclobutanecarboxylic acid]","ΔΔG, improvement of affinity relative to 16","[1]; cyclopentane of 16 decreased to cyclobutane, calculated from Ki values",0.71 kcal/mol and 0.7 kcal/mol
same,kcat,[1],1.47 ± 0.05 s⁻¹
same,"ΔΔG, loss of binding energy relative to 18","[1]; removing the O heteroatom from 18, calculated from Ki values",about 0.2 kcal/mol
same,reduction of enzyme activity relative to the no-inhibitor control,[2]; [4],over 2 fold
same,inhibition at 5000 µM,[2],> 50%
"O=C(O)C1CC1 [Compound 4, cyclopropanecarboxylic acid]",kcat,[1],1.20 ± 0.03 s⁻¹
same,"ΔΔG, decrease of affinity relative to 3","[1]; ring size decreased from cyclobutane to cyclopropane, calculated from Ki values",0.3 kcal/mol
"CCC(=O)C(=O)O [Compound 17, 2-oxobutyric acid]",kcat,[1],1.14 ± 0.02 s⁻¹
same,inhibition at 5000 µM,[2],> 50%
"O=C(O)[C@@H]1CCO1 [Compound 18, (2S)-oxetane-2-carboxylic acid]","ΔΔG, loss of binding energy relative to 1",[1]; calculated from Ki values,0.95 kcal/mol
same,fold change in Ki relative to 1,[1],5 fold
same,kcat,[1],1.42 ± 0.04 s⁻¹
same,reduction of enzyme activity relative to the no-inhibitor control,[2]; [4],over 2 fold
same,inhibition at 5000 µM,[2],> 50%
"O=C1CC(C(=O)O)C1 [Compound 10, 3-oxocyclobutanecarboxylic acid]",inhibition in the single-point assay (in words),[2]; [4],very little inhibition
CC(=O)O [acetic acid],Ki,[3],~30 mM
"NC(=O)[C@@H]1CCCO1 [Compound 13, (S)-(−)-tetrahydrofuran-2-carboxamide]",inhibition in the single-point assay (in words),[2]; [4],decreases inhibition
C[C@H](O)C(=O)O [L-lactic acid],Ki,[3],~1 mM
"(S)-(−)-tetrahydro-2-furoic acid [Compound 1, reference compound]",kcat,[1],1.16 ± 0.03 s⁻¹
same,enzyme activity relative to the no-inhibitor control,[2]; [4],12%
same,Ki,[3],0.2 to 1 mM
"O=C(O)C1CCCC1 [Compound 16, cyclopentanecarboxylic acid]","ΔΔG, loss of binding energy relative to 1",[1]; calculated from Ki values,~2 kcal/mol
same,fold change in Ki relative to 1,[1],20 fold
same,kcat,[1],1.35 ± 0.04 s⁻¹
same,inhibition in the single-point assay (in words),[2]; [4],severely decreases inhibition
"O=C(O)C1CCCCO1 (centres unmarked) [Compound 15, tetrahydropyran-2-carboxylic acid]",inhibition in the single-point assay (in words),[2]; [4],severely decreases inhibition
